Values belong to the molecule of their own block, whether it stands above or below them.
System: 521955-158-R6-J3-PDC complex spheroid growth, % test/control
Assay: Anticancer human tumor 521955-158-R6-J3-PDC patient-derived pancreatic carcinoma cell line growth inhibition [Asc]
Conditions: for IC50: curve of first compound; for viability, T/C: stronger effect = lower value
Method in brief: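 Tumor cells were grown as complex spheroids with human endothelial cells (HUVEC) and human mesenchymal stem cells as stroma. Agents were tested alone and in combination, in half-log steps down from the clinical Cmax, or from 10 microM where Cmax was unknown.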

[1] = second compound 0.0316 µM, first compound 0.00316 µM
[2] = second compound 0.0316 µM, first compound 0.01 µM
[3] = second compound 0.0316 µM, first compound 0.0316 µM
[4] = second compound 0.0316 µM, first compound 0.1 µM
[5] = second compound 0.1 µM, first compound 0.00316 µM
[6] = second compound 0.1 µM, first compound 0.01 µM
[7] = second compound 0.1 µM, first compound 0.0316 µM
[8] = second compound 0.1 µM, first compound 0.1 µM
[9] = second compound 0.316 µM, first compound 0.00316 µM
[10] = second compound 0.316 µM, first compound 0.01 µM
[11] = second compound 0.316 µM, first compound 0.0316 µM
[12] = second compound 0.316 µM, first compound 0.1 µM
[13] = second compound 1 µM, first compound 0.00316 µM
[14] = second compound 1 µM, first compound 0.01 µM
[15] = second compound 1 µM, first compound 0.0316 µM
[16] = second compound 1 µM, first compound 0.1 µM
[17] = second compound 3.16 µM, first compound 0.00316 µM
[18] = second compound 3.16 µM, first compound 0.01 µM
[19] = second compound 3.16 µM, first compound 0.0316 µM
[20] = second compound 3.16 µM, first compound 0.1 µM
[21] = second compound 10 µM, first compound 0.00316 µM
[22] = second compound 10 µM, first compound 0.01 µM
[23] = second compound 10 µM, first compound 0.0316 µM
[24] = second compound 10 µM, first compound 0.1 µM
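Also: spheroids exposed to compounds for 7 days.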
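For viability, T/C in this document: 100% = DMSO vehicle control wells.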

- IC50 (second compound 0.0316 µM): 222 nM
- IC50 (second compound 0.1 µM): 84.7 nM
- IC50 (second compound 0.316 µM): < 3.16 nM
- IC50 (second compound 1 µM): < 3.16 nM
- IC50 (second compound 3.16 µM): < 3.16 nM
- IC50 (second compound 10 µM): < 3.16 nM
SMILES: COc1c(OCCCN2CCOCC2)ccc2c3n(c(=NC(=O)c4cnc(N)nc4)nc12)CCN3 + Cc1c(S(C)(=O)=O)c(-c2cc(F)cc(N3CCN(c4ccc(NS(=O)(=O)c5ccc(NC(CCN6CCC(C(=O)OCCCP(=O)(O)O)CC6)CSc6ccccc6)c(S(=O)(=O)C(F)(F)F)c5)cc4)CC3)c2)c(-c2ccc(Cl)cc2)n1C(C)C
- viability, T/C [1]: 87.5%
- viability, T/C [2]: 84.8%
- viability, T/C [3]: 55.2%
- viability, T/C [4]: 70.2%
- viability, T/C (second compound 0.0316 µM, first compound 0.316 µM): 46.7%
- viability, T/C (second compound 0.0316 µM, first compound 1 µM): 27.4%
- viability, T/C [5]: 82.7%
- viability, T/C [6]: 61%
- viability, T/C [7]: 61.6%
- viability, T/C [8]: 53.4%
- viability, T/C (second compound 0.1 µM, first compound 0.316 µM): 34%
- viability, T/C (second compound 0.1 µM, first compound 1 µM): 17.3%
- viability, T/C [9]: 42%
- viability, T/C [10]: 38.9%
- viability, T/C [11]: 39%
- viability, T/C [12]: 30.5%
- viability, T/C (second compound 0.316 µM, first compound 0.316 µM): 28%
- viability, T/C (second compound 0.316 µM, first compound 1 µM): 13%
- viability, T/C [13]: 33.9%
- viability, T/C [14]: 36.3%
- viability, T/C [15]: 33.5%
- viability, T/C [16]: 20.5%
- viability, T/C (second compound 1 µM, first compound 0.316 µM): 15.8%
- viability, T/C (second compound 1 µM, first compound 1 µM): 6.07%
- viability, T/C [17]: 15.3%
- viability, T/C [18]: 18.2%
- viability, T/C [19]: 16.9%
- viability, T/C [20]: 11.9%
- viability, T/C (second compound 3.16 µM, first compound 0.316 µM): 4.31%
- viability, T/C (second compound 3.16 µM, first compound 1 µM): 2.03%
- viability, T/C [21]: 17.6%
- viability, T/C [22]: 14.4%
- viability, T/C [23]: 8.58%
- viability, T/C [24]: 7.73%
- viability, T/C (second compound 10 µM, first compound 0.316 µM): 2.64%
- viability, T/C (second compound 10 µM, first compound 1 µM): 1.68%

- IC50 (second compound 0.0316 µM): > 300 nM
- IC50 (second compound 0.1 µM): > 300 nM
- IC50 (second compound 0.316 µM): > 300 nM
- IC50 (second compound 1 µM): < 0.949 nM
- IC50 (second compound 3.16 µM): < 0.949 nM
- IC50 (second compound 10 µM): < 0.949 nM
SMILES: NC(=O)C(=Cn1cnc(-c2cc(C(F)(F)F)cc(C(F)(F)F)c2)n1)c1cncnc1 + Cc1c(S(C)(=O)=O)c(-c2cc(F)cc(N3CCN(c4ccc(NS(=O)(=O)c5ccc(NC(CCN6CCC(C(=O)OCCCP(=O)(O)O)CC6)CSc6ccccc6)c(S(=O)(=O)C(F)(F)F)c5)cc4)CC3)c2)c(-c2ccc(Cl)cc2)n1C(C)C
- viability, T/C (second compound 0.0316 µM, first compound 0.000949 µM): 95%
- viability, T/C (second compound 0.0316 µM, first compound 0.003 µM): 97.1%
- viability, T/C (second compound 0.0316 µM, first compound 0.00949 µM): 60.6%
- viability, T/C (second compound 0.0316 µM, first compound 0.03 µM): 82.1%
- viability, T/C (second compound 0.0316 µM, first compound 0.0949 µM): 103%
- viability, T/C (second compound 0.0316 µM, first compound 0.3 µM): 108%
- viability, T/C (second compound 0.1 µM, first compound 0.000949 µM): 84%
- viability, T/C (second compound 0.1 µM, first compound 0.003 µM): 90.4%
- viability, T/C (second compound 0.1 µM, first compound 0.00949 µM): 70.9%
- viability, T/C (second compound 0.1 µM, first compound 0.03 µM): 62.1%
- viability, T/C (second compound 0.1 µM, first compound 0.0949 µM): 89.3%
- viability, T/C (second compound 0.1 µM, first compound 0.3 µM): 85.9%
- viability, T/C (second compound 0.316 µM, first compound 0.000949 µM): 70.3%
- viability, T/C (second compound 0.316 µM, first compound 0.003 µM): 49%
- viability, T/C (second compound 0.316 µM, first compound 0.00949 µM): 47.2%
- viability, T/C (second compound 0.316 µM, first compound 0.03 µM): 47.5%
- viability, T/C (second compound 0.316 µM, first compound 0.0949 µM): 69.6%
- viability, T/C (second compound 0.316 µM, first compound 0.3 µM): 43.5%
- viability, T/C (second compound 1 µM, first compound 0.000949 µM): 47.1%
- viability, T/C (second compound 1 µM, first compound 0.003 µM): 30.3%
- viability, T/C (second compound 1 µM, first compound 0.00949 µM): 34.6%
- viability, T/C (second compound 1 µM, first compound 0.03 µM): 33%
- viability, T/C (second compound 1 µM, first compound 0.0949 µM): 43.8%
- viability, T/C (second compound 1 µM, first compound 0.3 µM): 18.4%
- viability, T/C (second compound 3.16 µM, first compound 0.000949 µM): 19.8%
- viability, T/C (second compound 3.16 µM, first compound 0.003 µM): 21.9%
- viability, T/C (second compound 3.16 µM, first compound 0.00949 µM): 22.6%
- viability, T/C (second compound 3.16 µM, first compound 0.03 µM): 20.9%
- viability, T/C (second compound 3.16 µM, first compound 0.0949 µM): 16.2%
- viability, T/C (second compound 3.16 µM, first compound 0.3 µM): 5.69%
- viability, T/C (second compound 10 µM, first compound 0.000949 µM): 12.2%
- viability, T/C (second compound 10 µM, first compound 0.003 µM): 16.9%
- viability, T/C (second compound 10 µM, first compound 0.00949 µM): 11.6%
- viability, T/C (second compound 10 µM, first compound 0.03 µM): 10.2%
- viability, T/C (second compound 10 µM, first compound 0.0949 µM): 9.2%
- viability, T/C (second compound 10 µM, first compound 0.3 µM): 0.76%

- IC50 (second compound 0.0316 µM): > 100 nM
- IC50 (second compound 0.1 µM): > 100 nM
- IC50 (second compound 0.316 µM): < 0.316 nM
- IC50 (second compound 1 µM): < 0.316 nM
- IC50 (second compound 3.16 µM): < 0.316 nM
- IC50 (second compound 10 µM): < 0.316 nM
SMILES: NC1CCC(NC2CC2c2ccccc2)CC1 (stereo unspecified) + Cc1c(S(C)(=O)=O)c(-c2cc(F)cc(N3CCN(c4ccc(NS(=O)(=O)c5ccc(NC(CCN6CCC(C(=O)OCCCP(=O)(O)O)CC6)CSc6ccccc6)c(S(=O)(=O)C(F)(F)F)c5)cc4)CC3)c2)c(-c2ccc(Cl)cc2)n1C(C)C
- viability, T/C (second compound 0.0316 µM, first compound 0.000316 µM): 83.7%
- viability, T/C (second compound 0.0316 µM, first compound 0.001 µM): 97.1%
- viability, T/C [1]: 80.8%
- viability, T/C [2]: 92.7%
- viability, T/C [3]: 96.6%
- viability, T/C [4]: 90.4%
- viability, T/C (second compound 0.1 µM, first compound 0.000316 µM): 97.7%
- viability, T/C (second compound 0.1 µM, first compound 0.001 µM): 94.7%
- viability, T/C [5]: 87.4%
- viability, T/C [6]: 74.8%
- viability, T/C [7]: 79.1%
- viability, T/C [8]: 73.3%
- viability, T/C (second compound 0.316 µM, first compound 0.000316 µM): 47.1%
- viability, T/C (second compound 0.316 µM, first compound 0.001 µM): 51.2%
- viability, T/C [9]: 55.4%
- viability, T/C [10]: 61.9%
- viability, T/C [11]: 43.9%
- viability, T/C [12]: 63.8%
- viability, T/C (second compound 1 µM, first compound 0.000316 µM): 29%
- viability, T/C (second compound 1 µM, first compound 0.001 µM): 36.1%
- viability, T/C [13]: 38.5%
- viability, T/C [14]: 29.1%
- viability, T/C [15]: 45.4%
- viability, T/C [16]: 36.6%
- viability, T/C (second compound 3.16 µM, first compound 0.000316 µM): 16.8%
- viability, T/C (second compound 3.16 µM, first compound 0.001 µM): 19.4%
- viability, T/C [17]: 20%
- viability, T/C [18]: 20.5%
- viability, T/C [19]: 20.6%
- viability, T/C [20]: 18.4%
- viability, T/C (second compound 10 µM, first compound 0.000316 µM): 16.8%
- viability, T/C (second compound 10 µM, first compound 0.001 µM): 11.2%
- viability, T/C [21]: 16.9%
- viability, T/C [22]: 11.9%
- viability, T/C [23]: 11.8%
- viability, T/C [24]: 11.5%

Reference: PubChem BioAssay AID1963451 (Molecular Pharmacology Branch, DTP, NCI, 2024)
